The record followed here is patent publication US8981114B2, “Derivatives of 1-(substituted sulfonyl)-2-aminoimidazoline as antitumor and antiproliferative agents” (OncoArendi Therapeutics Sp. z.o.o., priority 2013, dated 2015).

Broadly, the IC50 is the point on the concentration scale where inhibition reaches its midpoint.

Each structure is given as a SMILES string. Some results are limits rather than exact numbers.

For one assay, the system named is colon human tumor (HT-29) cells. The assay can be described thus: Cell growth inhibitory activity, standard MTT assay. The note with it: Homo sapiens, MTT assay after 72 hr exposure, 0.1% DMSO, read-out: IC50 range. The class given is cell-based. As for the experimental part: Cell growth inhibitory activity of compounds of this invention was determined using a standard MTT assay. Adherent cells of colon human tumor (HT-29) sourced from ATCC (cells number: HTB-38) were treated with DMSO solutions of tested compounds with the ultimate concentration of DMSO in the test solution being 0.1%. Following the 72 hour long treatment MTT was added, and after a brief incubation the resulting formazan was dissolved in addional DMSO and the solutions were scanned using 570 nm wavelength.
In general terms: Tetrazolium dyes change colour on reduction, which living cells bring about.
On to `CC(C)NC(=O)N1CCc2cc(S(=O)(=O)N3C[C@H](c4ccccc4)N=C3N)ccc21` [Example 98], for which the IC50 is less than 100 nM.

Staying with this assay, now noted: MTT assay after 72 hr exposure, 0.1% DMSO, read-out: IC50 range.
Take `CC1Cc2cc(S(=O)(=O)N3CC(c4ccccc4)N=C3N)ccc2N1C(=O)c1ccc(N)cc1` (mixture of isomers) [Example 54]: the IC50 was less than 100 nM.

Consider `NC1=N[C@@H](c2ccccc2)CN1S(=O)(=O)c1ccc2c(c1)CCN2C(=O)c1ccco1` [Example 35], for which the IC50 was less than 100 nM.

As to `CC(C)[C@H]1CN(S(=O)(=O)c2ccc3c(c2)CCN3C(=O)c2ccco2)C(N)=N1` [Example 36], the IC50 is less than 100 nM.

Consider `NC1=N[C@@H](C2CCCCC2)CN1S(=O)(=O)c1ccc2c(c1)CCN2C(=O)c1ccco1` [Example 37], for which the 50% inhibitory concentration (IC50) is less than 100 nM.

With `NC1=N[C@@H](c2ccccc2)CN1S(=O)(=O)c1ccc2c(c1)CCN2C(=O)c1cccs1` [Example 38], the IC50 was less than 100 nM.

With `CC(=O)N1CCc2cc(S(=O)(=O)N3C[C@H](c4ccccc4)N=C3N)ccc21` [Example 39], the IC50 is 100 to 500 nM.

On to `CCC(=O)N1CCc2cc(S(=O)(=O)N3C[C@H](c4ccccc4)N=C3N)ccc21` [Example 40], for which the IC50 was less than 100 nM.

For `CCCC(=O)N1CCc2cc(S(=O)(=O)N3C[C@H](c4ccccc4)N=C3N)ccc21` [Example 41], the IC50 is less than 100 nM.

As to `CC(C)C(=O)N1CCc2cc(S(=O)(=O)N3C[C@H](c4ccccc4)N=C3N)ccc21` [Example 42], the IC50 is less than 100 nM.

On to `NC1=N[C@@H](c2ccccc2)CN1S(=O)(=O)c1ccc2c(c1)CCN2C(=O)Cc1cccs1` [Example 43], for which the IC50 was less than 100 nM.

Consider `NC1=N[C@@H](c2ccccc2)CN1S(=O)(=O)c1ccc2c(c1)CCN2C(=O)c1ccccc1` [Example 44], for which the IC50 was less than 100 nM.

`CN(C)c1ccc(C(=O)N2CCc3cc(S(=O)(=O)N4C[C@H](c5ccccc5)N=C4N)ccc32)cc1` [Example 46]: the IC50 was less than 100 nM.

Consider `CCOc1ccc(C(=O)N2CCc3cc(S(=O)(=O)N4C[C@H](c5ccccc5)N=C4N)ccc32)cc1` [Example 47], for which the IC50 was less than 100 nM.

Take `NC1=N[C@@H](c2ccccc2)CN1S(=O)(=O)c1ccc2c(c1)CCN2C(=O)Cc1ccccc1` [Example 48]: the IC50 was less than 100 nM.

For `COC(=O)N1CCc2cc(S(=O)(=O)N3C[C@H](c4ccccc4)N=C3N)ccc21` [Example 49], the IC50 was less than 100 nM.

For `CC(=O)N1CCC(C(=O)N2CCc3cc(S(=O)(=O)N4C[C@H](c5ccccc5)N=C4N)ccc32)CC1` [Example 50], the IC50 is less than 100 nM.

As to `NC1=N[C@@H](c2ccccc2)CN1S(=O)(=O)c1ccc2c(c1)CCN2C(=O)C1CCCCC1` [Example 51], the IC50 is less than 100 nM.

On to `NC1=N[C@@H](c2ccccc2)CN1S(=O)(=O)c1ccc2c(c1)CCN2C(=O)c1cccc2ccccc12` [Example 52], for which the IC50 is less than 100 nM.

As to `NC1=N[C@@H](c2ccccc2)CN1S(=O)(=O)c1ccc2c(c1)CCN2C(=O)c1cccnc1` [Example 53], the IC50 is less than 100 nM.

Regarding `CC(C)NC(=S)N1CCc2cc(S(=O)(=O)N3C[C@H](c4ccccc4)N=C3N)ccc21` [Example 55], the IC50 is less than 100 nM.

As to `CCCC(=O)N1CCCc2cc(S(=O)(=O)N3C[C@H](c4ccccc4)N=C3N)ccc21` [Example 56], the IC50 was less than 100 nM.

Consider `CCCC(=O)N1CCc2cc(S(=O)(=O)N3C[C@@H](c4ccccc4)N=C3N)ccc21` [Example 57], for which the IC50 is greater than 500 nM.

With `COc1ccc([C@H]2CN(S(=O)(=O)c3ccc4c(c3)CCN4C(=O)c3cccn3C)C(N)=N2)cc1` [Example 62], the IC50 is greater than 500 nM.

In the case of `Cn1cccc1C(=O)N1CCc2cc(S(=O)(=O)N3C[C@H](c4ccccc4Cl)N=C3N)ccc21` [Example 64], the IC50 was less than 100 nM.

As for `Cc1cccc([C@H]2CN(S(=O)(=O)c3ccc4c(c3)CCN4C(=O)c3cccn3C)C(N)=N2)c1` [Example 65], the IC50 was 100 to 500 nM.

As for `NC1=N[C@@H](c2ccccc2)CN1S(=O)(=O)c1ccc2c(c1)CCN2` [Example 70], the IC50 was less than 100 nM.

Regarding `COCCNC(=O)N1CCc2cc(S(=O)(=O)N3CCN=C3N)ccc21` [Example 76], the IC50 lay within 100 to 500 nM.

`CCCNC(=O)N1CCc2cc(S(=O)(=O)N3C[C@H](c4ccccc4)N=C3N)ccc21` [Example 82]: the IC50 is less than 100 nM.

Turning to `CCCNC(=O)N1CCc2cc(S(=O)(=O)N3C[C@H](c4ccc(F)cc4)N=C3N)ccc21` [Example 83], the IC50 was less than 100 nM.

As for `CCCNC(=O)N1CCc2cc(S(=O)(=O)N3C[C@H](c4ccc(OC)cc4)N=C3N)ccc21` [Example 84], the IC50 lay in the range of 100 to 500 nM.

In the case of `CCCNC(=O)N1CCc2cc(S(=O)(=O)N3C[C@H](c4ccccc4C)N=C3N)ccc21` [Example 87], the IC50 was less than 100 nM.

As for `CCCCNC(=O)N1CCc2cc(S(=O)(=O)N3C[C@H](c4ccccc4)N=C3N)ccc21` [Example 89], the IC50 was less than 100 nM.

As to `CCCCNC(=O)N1CCc2cc(S(=O)(=O)N3C[C@H](c4cccc(Cl)c4)N=C3N)ccc21` [Example 93], the IC50 is less than 100 nM.

For `CCCCNC(=O)N1CCc2cc(S(=O)(=O)N3C[C@H](c4ccccc4C)N=C3N)ccc21` [Example 95], the half-maximal inhibitory concentration (IC50) was less than 100 nM.

In the case of `CCCCNC(=O)N1CCc2cc(S(=O)(=O)N3C[C@H](c4ccc(Cl)cc4)N=C3N)ccc21` [Example 97], the IC50 is 100 to 500 nM.

Turning to `NC1=N[C@@H](c2ccccc2)CN1S(=O)(=O)c1ccc2c(c1)CCN2C(=O)NCC1CC1` [Example 100], the IC50 is less than 100 nM.

As to `CC(C)(C)CNC(=O)N1CCc2cc(S(=O)(=O)N3C[C@H](c4ccccc4)N=C3N)ccc21` [Example 102], the IC50 is less than 100 nM.
